The values below come from patent US20260285866A1, “MODULATORS OF TRPML, THEIR COMPOSITIONS AND METHODS OF USE” (Caraway Therapeutics, Inc., priority 2024, published 2026).

One experiment has as its target T1, Human TRPML3 (Homo sapiens, UniProt Q8TDD5).
T1 construct: expressed in transfected cells
T1 sequence (Q8TDD5 1-553): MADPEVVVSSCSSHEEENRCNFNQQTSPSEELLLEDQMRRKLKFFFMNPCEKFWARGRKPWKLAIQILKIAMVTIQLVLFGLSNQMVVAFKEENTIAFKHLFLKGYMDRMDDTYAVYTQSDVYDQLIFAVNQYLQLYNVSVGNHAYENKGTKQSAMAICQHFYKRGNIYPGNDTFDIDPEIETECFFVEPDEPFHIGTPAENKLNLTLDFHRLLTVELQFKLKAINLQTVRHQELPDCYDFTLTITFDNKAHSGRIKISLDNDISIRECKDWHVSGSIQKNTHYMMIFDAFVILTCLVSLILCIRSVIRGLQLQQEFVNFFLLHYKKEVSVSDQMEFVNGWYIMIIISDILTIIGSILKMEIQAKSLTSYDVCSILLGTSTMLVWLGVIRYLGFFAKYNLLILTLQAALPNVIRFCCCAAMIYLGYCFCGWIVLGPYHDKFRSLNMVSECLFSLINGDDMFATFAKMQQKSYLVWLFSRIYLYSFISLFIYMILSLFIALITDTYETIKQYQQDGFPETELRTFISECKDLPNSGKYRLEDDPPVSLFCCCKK
The experiment in a line: Fluorescent TRPML3 assay (as for TRPML1). In kind it is cell-based. The note with it: fluorescent calcium assay as for TRPML1, TRPML3 subtype. As for the experimental part:
(§1) HEK-293 Trex cells were stably transfected with a construct consisting of the human coding sequence for TRPML1 cloned into the tet-inducible plasmid pCDNA5 T/O. Mutations were introduced into the TRPML1 sequence to facilitate expression on the cell surface (Silvia Vergarajauregui, Rosa Puertollano Traffic. 2006 March; 7(3): 337-353). Briefly, the cells are cultured in 150 mm round tissue culture dishes containing 20 mL of media. The day before the assay the cells are rinsed with DPBS-Ca-Mg and then treated briefly with Trypsin-EDTA. The Trypsin-EDTA is diluted with growth media, and cells are counted. 38×10^6 cells are re-plated into 150 mm round tissue culture dishes in media containing 0.5 μg/mL doxycycline to induce expression of hTRPML1.
(§2) The day of the experiment cells are lifted from the plates as above and collected by centrifugation. The cells are then suspended in dye loading buffer consisting of Ringer's solution supplemented with 0.1% Pluronic Acid and 1 micromolar Fluo4-AM dye. Cells are loaded for ~60 minutes in the dark with occasional mixing. The cells are collected by centrifugation, the loading media aspirated, and the cells resuspended in 25 mL Ringer's solution and incubated ~60 minutes in the dark. The cells are again collected by centrifugation, rinsed in Ringer's Solution and resuspended to 0.2×10^6 cells/mL in modified Ringer's solution containing 10 mM calcium.
(§3) Compounds are dissolved to a concentration of 10 millimolar with DMSO. Compound plates are created by dispensing compounds into 384 well black wall clear bottom plates (Greiner 781091). Positive and negative controls are included on each plate. Typically, different amounts of each compound are tested ranging from 100 nanoMoles (20 micromolar final concentration) decreasing in half-log steps to 31 picoMoles (6 nanomolar final concentration). Each concentration is typically tested in triplicate.
(§4) 50 microliters of dye-loaded cells are dispensed into each well of the compound assay plate created above. The fluorescence in each well is then determined with an excitation wavelength of 480 nm and an emission wavelength of 540 nm using either a Molecular Devices SpectraMax multimode plate reader or a Hamamatsu FDSS/uCell plate imager.
(§5) The resulting fluorescence for each well is exported as an ascii file and loaded into our LIMS for analysis. The percent activity of each compound at each concentration is determined by comparison to the positive and negative control wells included in each plate.
Assays for TRPML2 and TRPML3 were performed as above for TRPML1, by substituting the appropriate TRPML2 or TRPML3 subtype for the TRPML1.
(§6) EC50 values were calculated using a non-linear regression of Prism. In the table, “A” indicates an EC50 of less than 100 nM, “B” indicates an EC50 range from 100 nM to 500 nM: “C” indicates an EC50 range from 500 nM to 2 μM; and “D” indicates an EC50 greater than 2 μM.

The next experiment has as its target Human TRPML1 (Homo sapiens, UniProt Q9GZU1, L15A/L16A/L577A/L578A). Kind of experiment: Fluorescent TRPML1 assay (Fluo4-AM, HEK-293 Trex cells expressing hTRPML1). Conditions: fluorescent calcium assay, doxycycline-induced hTRPML1. Format: cell-based. As for the experimental part: Example 27. Fluorescent TRPML Assays
as §1, §2, §3, §4, §5, §6

Chain of Human TRPML1 (Q9GZU1 whole entry L15A/L16A/L577A/L578A): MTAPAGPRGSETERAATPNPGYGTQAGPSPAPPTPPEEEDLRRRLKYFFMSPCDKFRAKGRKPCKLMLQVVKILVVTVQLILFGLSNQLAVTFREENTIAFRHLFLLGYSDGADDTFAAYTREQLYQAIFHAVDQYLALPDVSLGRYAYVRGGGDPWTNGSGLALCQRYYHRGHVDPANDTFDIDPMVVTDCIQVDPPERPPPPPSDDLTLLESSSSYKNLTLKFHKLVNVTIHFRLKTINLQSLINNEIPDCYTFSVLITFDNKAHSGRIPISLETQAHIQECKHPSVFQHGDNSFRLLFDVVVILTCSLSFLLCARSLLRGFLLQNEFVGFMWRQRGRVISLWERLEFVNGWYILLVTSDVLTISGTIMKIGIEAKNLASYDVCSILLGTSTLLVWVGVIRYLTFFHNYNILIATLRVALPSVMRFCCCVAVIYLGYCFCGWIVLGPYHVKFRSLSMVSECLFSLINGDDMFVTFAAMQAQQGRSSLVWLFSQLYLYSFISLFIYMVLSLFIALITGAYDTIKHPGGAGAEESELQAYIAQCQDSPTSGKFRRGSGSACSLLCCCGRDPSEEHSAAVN

For `C[C@@H]1CN(c2nccc3c2c(-c2ccncc2)cn3-c2cccc(Cl)c2)[C@@H](C)CN1C(=O)C(C)(C)O` [Compound 142, 1-((2R,5S)-4-(1-(3-chlorophenyl)-3-(pyridin-4-yl)-1H-pyrrolo[3,2-c]pyridin-4-yl)-2,5-dimethylpiperazin-1-yl)-2-hydroxy-2-methylpropan-1-one], the EC50 (usually the concentration giving half of the maximal effect) is more than 2000 nM at Human TRPML3 and 500 to 2000 nM on Human TRPML1.

For `C[C@@H]1CN(c2ncnc3c2c(-c2cnco2)cn3-c2cc(C#N)ccn2)[C@@H](C)CN1C(=O)C(C)(C)O` [Compound 127, 2-(4-((2S,5R)-4-(2-hydroxy-2-methylpropanoyl)-2,5-dimethylpiperazin-1-yl)-5-(oxazol-5-yl)-7H-pyrrolo[2,3-d]pyrimidin-7-yl)isonicotinonitrile], the EC50 was more than 2000 nM on Human TRPML3 and 100 to 500 nM on Human TRPML1.

For the compound `C[C@@H]1CN(c2ncnc3c2c(-c2ccccc2)cn3-c2cc(F)ccn2)[C@@H](C)CN1C(=O)C(C)(C)O` [Compound 106, 1-((2R,5S)-4-(7-(4-fluoropyridin-2-yl)-5-phenyl-7H-pyrrolo[2,3-d]pyrimidin-4-yl)-2,5-dimethylpiperazin-1-yl)-2-hydroxy-2-methylpropan-1-one], the EC50 at Human TRPML3 is more than 2000 nM; at Human TRPML1 it was 100 to 500 nM.

On to `C[C@@H]1CN(c2nccc3c2c(-c2ccncc2)cn3-c2cc(F)ccn2)[C@@H](C)CN1C(=O)C(C)(C)O` [Compound 141, 1-((2R,5S)-4-(1-(4-fluoropyridin-2-yl)-3-(pyridin-4-yl)-1H-pyrrolo[3,2-c]pyridin-4-yl)-2,5-dimethylpiperazin-1-yl)-2-hydroxy-2-methylpropan-1-one], for which the EC50 at Human TRPML3 and on Human TRPML1 was more than 2000 nM each time.

With `CC(C)(O)C(=O)N1CCN(c2ncnc3c2c(-c2ccccc2F)cn3-c2cc(C#N)ccn2)CC1` [Compound 124, 2-(5-(2-fluorophenyl)-4-(4-(2-hydroxy-2-methylpropanoyl)piperazin-1-yl)-7H-pyrrolo[2,3-d]pyrimidin-7-yl)isonicotinonitrile], the EC50 at Human TRPML1 lay in the range of 500 to 2000 nM.

In the case of `C[C@@H]1CN(c2nccc3c2c(-c2ccncc2)cn3-c2cc(F)cc(F)c2)[C@@H](C)CN1C(=O)C(C)(C)O` [Compound 143, 1-((2R,5S)-4-(1-(3,5-difluorophenyl)-3-(pyridin-4-yl)-1H-pyrrolo[3,2-c]pyridin-4-yl)-2,5-dimethylpiperazin-1-yl)-2-hydroxy-2-methylpropan-1-one], at Human TRPML1, the concentration for a half-maximal effect (EC50) was more than 2000 nM.

As for `C[C@@H]1CN(c2nccc3c2c(-c2ccncc2)cn3-c2cc(C#N)ccn2)[C@@H](C)CN1C(=O)C(C)(C)O` [Compound 140, 2-(4-((2S,5R)-4-(2-hydroxy-2-methylpropanoyl)-2,5-dimethylpiperazin-1-yl)-3-(pyridin-4-yl)-1H-pyrrolo[3,2-c]pyridin-1-yl)isonicotinonitrile], the 50% effective concentration (EC50) at Human TRPML3 is more than 2000 nM; on Human TRPML1, 500 to 2000 nM.

`CC(C)[C@H]1CN(C(=O)C(C)(C)O)[C@H](C)CN1c1ncnc2c1c(-c1ccccc1)cn2-c1cc(C#N)ccn1` [Compound 131, 2-(4-((2S,5R)-4-(2-hydroxy-2-methylpropanoyl)-2-isopropyl-5-methylpiperazin-1-yl)-5-phenyl-7H-pyrrolo[2,3-d]pyrimidin-7-yl)isonicotinonitrile]: the values for the EC50 on Human TRPML3 and on Human TRPML1 were 500 to 2000 nM and 100 to 500 nM, respectively.

Consider `C[C@H]1CN(C(=O)C2(O)CCC2)CCN1c1ncnc2c1c(-c1ccccc1)cn2-c1cc(C#N)ccn1` [Compound 118, (S)-2-(4-(4-(1-hydroxycyclobutane-1-carbonyl)-2-methylpiperazin-1-yl)-5-phenyl-7H-pyrrolo[2,3-d]pyrimidin-7-yl)isonicotinonitrile], for which the EC50 at Human TRPML3 and at Human TRPML1 was 100 to 500 nM each time.

`CC(C)(O)C(=O)N1CCN(c2ncnc3c2c(-c2ccccc2)cn3-c2cc(C#N)ccn2)[C@@H](C2CC2)C1` [Compound 113]: the EC50 at Human TRPML3 and on Human TRPML1 was 500 to 2000 nM each time.

Regarding `C[C@@H]1CN(c2ncnc3c2c(-c2nncs2)cn3-c2cc(C#N)ccn2)[C@@H](C)CN1C(=O)C(C)(C)O` [Compound 155, 2-(4-((2S,5R)-4-(2-hydroxy-2-methylpropanoyl)-2,5-dimethylpiperazin-1-yl)-5-(1,3,4-thiadiazol-2-yl)-7H-pyrrolo[2,3-d]pyrimidin-7-yl)isonicotinonitrile], the concentration for a half-maximal effect (EC50) on Human TRPML1 was more than 2000 nM.

`C[C@@H]1CN(c2ncnc3c2c(-c2ccccc2F)cn3-c2cc(C#N)ccn2)[C@@H](C)CN1C(=O)C1(O)CCC1` [Compound 114, 2-(5-(2-fluorophenyl)-4-((2S,5R)-4-(1-hydroxycyclobutane-1-carbonyl)-2,5-dimethylpiperazin-1-yl)-7H-pyrrolo[2,3-d]pyrimidin-7-yl)isonicotinonitrile]: the results for the concentration giving a half-maximal response (EC50) at Human TRPML3 and at Human TRPML1 were 100 to 500 nM and less than 100 nM, respectively.

In the case of `C[C@@H]1CN(c2ncnc3c2c(-c2ccccc2)cn3-c2cc(C#N)ccn2)[C@@H](C)CN1C(=O)C1(O)CCC1` [Compound 109, 2-(4-((2S,5R)-4-(1-hydroxycyclobutane-1-carbonyl)-2,5-dimethylpiperazin-1-yl)-5-phenyl-7H-pyrrolo[2,3-d]pyrimidin-7-yl)isonicotinonitrile], the values for the 50% effective concentration (EC50) on Human TRPML3 and on Human TRPML1 were 500 to 2000 nM and less than 100 nM, respectively.

Regarding `C[C@@H]1CN(c2ncnc3c2c(-c2cocn2)cn3-c2cc(C#N)ccn2)[C@@H](C)CN1C(=O)C(C)(C)O` [Compound 126, 2-(4-((2S,5R)-4-(2-hydroxy-2-methylpropanoyl)-2,5-dimethylpiperazin-1-yl)-5-(oxazol-4-yl)-7H-pyrrolo[2,3-d]pyrimidin-7-yl)isonicotinonitrile], the figures for the 50% effective concentration (EC50) at Human TRPML3 and on Human TRPML1 were more than 2000 nM and 500 to 2000 nM, respectively.

Consider `C[C@@H]1CN(c2ncnc3c2c(-c2ccccc2)cn3-c2cc(C#N)ccn2)[C@@H](C2CC2)CN1C(=O)C(C)(C)O` [Compound 119, 2-(4-((2S,5R)-2-cyclopropyl-4-(2-hydroxy-2-methylpropanoyl)-5-methylpiperazin-1-yl)-5-phenyl-7H-pyrrolo[2,3-d]pyrimidin-7-yl)isonicotinonitrile], for which the half-maximal effective concentration (EC50) at Human TRPML3 lay within 500 to 2000 nM; at Human TRPML1, 100 to 500 nM.

For `C[C@@H]1CN(c2ncnc3c2c(-c2ccncc2)cn3-c2cc(F)cc(F)c2)[C@@H](C)CN1C(=O)C(C)(C)O` [Compound 138, 1-((2R,5S)-4-(7-(3,5-difluorophenyl)-5-(pyridin-4-yl)-7H-pyrrolo[2,3-d]pyrimidin-4-yl)-2,5-dimethylpiperazin-1-yl)-2-hydroxy-2-methylpropan-1-one], the EC50 at Human TRPML1 was more than 2000 nM.

`C[C@@H]1CN(c2ncnc3c2c(C2CC2)cn3-c2cc(C#N)ccn2)[C@@H](C)CN1C(=O)CC(O)(C(F)(F)F)C(F)(F)F` [Compound 162, 2-(5-cyclopropyl-4-((2S,5R)-2,5-dimethyl-4-(4,4,4-trifluoro-3-hydroxy-3-(trifluoromethyl)butanoyl)piperazin-1-yl)-7H-pyrrolo[2,3-d]pyrimidin-7-yl)isonicotinonitrile]: on Human TRPML3, the EC50 fell in the range of 100 to 500 nM.

For the compound `C[C@@H]1CN(c2ncnc3c2c(C2CC2)cn3-c2cc(C#N)ccn2)[C@@H](C)CN1C(=O)C(C)(C)O` [Compound 105, 2-(5-cyclopropyl-4-((2S,5R)-4-(2-hydroxy-2-methylpropanoyl)-2,5-dimethylpiperazin-1-yl)-7H-pyrrolo[2,3-d]pyrimidin-7-yl)isonicotinonitrile], the EC50 at Human TRPML1 fell in the range of 500 to 2000 nM.
